Patent publication US4293694A, “Pyrido[3,2,1-jk]carbazols” (Otsuka Pharmaceutical Co., Ltd., priority 1979, dated 1981)
≈ marks a conversion by molar mass, not a printed value. Where two headings read alike, the source gives them in different places.

How the values were obtained:
[1] = tested on: Staphyrococcus aureus FDA 209p; experiment: Antimicrobial activity, serial dilution method on agar plate; format: cell-based; conditions: read-out: Minimum Inhibitory Concentration (MIC)
[2] = tested on: Bacillus subtilis ATCC 6633; experiment: as above; format: cell-based; conditions: ATCC6633, read-out: Minimum Inhibitory Concentration (MIC)
Proteus mirabilis 1287 = experiment: as above; format: cell-based; conditions: read-out: Minimum Inhibitory Concentration (MIC)
Acute toxicity = conditions: rat, in vivo, rats, dd strain, 18 to 22 g, fasted 12 hours
Experimental: Further, the acute toxicity of the compounds of the present invention having the formula (I) was determined by intravenous administration (i.v.) and oral administration (p.o.) in 5 to 6 groups of rats (dd strain; body weight, 18 to 22 g; 10 rats in each group) which had been fasted for 12 hours prior to the test.

Sarcina lutea ATCC 9341 = experiment: Antimicrobial activity, serial dilution method on agar plate; format: cell-based; conditions: Micrococcus luteus, ATCC9341, read-out: Minimum Inhibitory Concentration (MIC)
[3] = tested on: Bacillus cereus ATCC 11778; experiment: as above; format: cell-based; conditions: ATCC11778, read-out: Minimum Inhibitory Concentration (MIC)
Enterbactor cloacae 2 = experiment: as above; format: cell-based; conditions: read-out: Minimum Inhibitory Concentration (MIC)
[4] = tested on: Staphyrococcus aureus Newmann; experiment: as above; format: cell-based; conditions: read-out: Minimum Inhibitory Concentration (MIC)
Bacillus anthracis = experiment: microbe, parasite or virus in culture; format: cell-based; conditions: read-out: Minimum Inhibitory Concentration (MIC)
[5] = tested on: Streptococcus faecalis IFO 12580; experiment: Antimicrobial activity, serial dilution method on agar plate; format: cell-based; conditions: Enterococcus faecalis, IFO12580, read-out: Minimum Inhibitory Concentration (MIC)
[6] = tested on: Klebsiella pneumoniae ST-101; experiment: as above; format: cell-based; conditions: ST101, read-out: Minimum Inhibitory Concentration (MIC)
[7] = tested on: Micrococcus flavus ATCC 10240a; experiment: as above; format: cell-based; conditions: ATCC10240A, read-out: Minimum Inhibitory Concentration (MIC)
[8] = tested on: Esherichia coli NIHJ JC-2; experiment: as above; format: cell-based; conditions: read-out: Minimum Inhibitory Concentration (MIC)
[9] = tested on: Enterbactor aerogenes IFO 12979; experiment: as above; format: cell-based; conditions: read-out: Minimum Inhibitory Concentration (MIC)
Esherichia coli NIHJ = experiment: as above; format: cell-based; conditions: read-out: Minimum Inhibitory Concentration (MIC)
Candida albicans KYU = experiment: as above; format: cell-based; conditions: read-out: Minimum Inhibitory Concentration (MIC)
Streptomyces viridans = experiment: as above; format: cell-based; conditions: read-out: Minimum Inhibitory Concentration (MIC)
[10] = tested on: Serratia marcescens ATCC 14756; experiment: as above; format: cell-based; conditions: ATCC14756, read-out: Minimum Inhibitory Concentration (MIC)
[11] = tested on: Salmonella typhimurium kh; experiment: as above; format: cell-based; conditions: Salmonella enterica, read-out: Minimum Inhibitory Concentration (MIC)
[12] = tested on: Pseudomonas aeruginosa ATCC 10145; experiment: as above; format: cell-based; conditions: ATCC10145, read-out: Minimum Inhibitory Concentration (MIC)
[13] = iv, read-out: LD50 (50% lethal dose), i.v.
[14] = po, read-out: LD50 (50% lethal dose), p.o.

Structure (SMILES) | MIC [1] [µg/mL] | MIC [2] [µg/mL] | MIC (Proteus mirabilis 1287) [µg/mL] | LD50 (Acute toxicity; [13]) [mg/kg] | MIC (Sarcina lutea ATCC 9341) [µg/mL] | MIC [3] [µg/mL] | MIC (Enterbactor cloacae 2) [µg/mL] | MIC [4] [µg/mL] | MIC (Bacillus anthracis) [µg/mL] | MIC [5] [µg/mL] | MIC [6] [µg/mL] | MIC [7] [µg/mL] | MIC [8] [µg/mL] | MIC [9] [µg/mL] | MIC (Esherichia coli NIHJ) [µg/mL] | MIC (Candida albicans KYU) [µg/mL] | MIC (Streptomyces viridans) [µg/mL] | MIC [10] [µg/mL] | MIC [11] [µg/mL] | MIC [12] [µg/mL] | also measured
O=C(O)c1cn2c3c(cc(F)cc3c1=O)C1CCCCC12 (stereo not shown) [Compound 1, 2-fluoro-7a,8,9,10,11,11a-hexahydro-4-oxo-4H-pyrido[3,2,1-jk]carbazol-5-carboxylic acid] | 6.3 (≈ 21.9 µM) | 1.6 (≈ 5.57 µM) | 12.5 (≈ 43.5 µM) | 130 | 50 (≈ 174 µM) | 25 (≈ 87 µM) | 3.2 (≈ 11.1 µM) | 6.3 (≈ 21.9 µM) | 3.2 (≈ 11.1 µM) | 100 (≈ 348 µM) | 3.2 (≈ 11.1 µM) | 50 (≈ 174 µM) | 6.3 (≈ 21.9 µM) | 3.2 (≈ 11.1 µM) | 6.3 (≈ 21.9 µM) | > 500 | 100 (≈ 348 µM) | 3.2 (≈ 11.1 µM) | 6.3 (≈ 21.9 µM) | > 100 | LD50 (Acute toxicity; [14]): 5000 mg/kg
O=C(O)c1cn2c3c(cccc3c1=O)C1CCCCC12 (stereo not shown) [Compound 2, 7a,8,9,10,11,11a-Hexahydro-4-oxo-4H-pyrido[3,2,1-jk]carbazol-5-carboxylic acid] | 25 (≈ 92.8 µM) | 12.5 (≈ 46.4 µM) | 50 (≈ 186 µM) | 120 | 100 (≈ 371 µM) | 100 (≈ 371 µM) | 12.5 (≈ 46.4 µM) | 25 (≈ 92.8 µM) | 25 (≈ 92.8 µM) | > 100 | 12.5 (≈ 46.4 µM) | 100 (≈ 371 µM) | 25 (≈ 92.8 µM) | 12.5 (≈ 46.4 µM) | 25 (≈ 92.8 µM) | > 500 | > 100 | 12.5 (≈ 46.4 µM) | 25 (≈ 92.8 µM) | > 100 | LD50 (Acute toxicity; [14]): 5000 mg/kg
CCOC(=O)c1cn2c3c(cc(F)cc3c1=O)C1CCCCC12 (stereo not shown) [Compound 3, ethyl 2-fluoro-7a,8,9,10,11,11a-hexahydro-4-oxo-4H-pyrido-[3,2,1-jk]carbazol-5-carboxylate] | 25 (≈ 79.3 µM) | 6.3 (≈ 20 µM) | 25 (≈ 79.3 µM) | 80 | 100 (≈ 317 µM) | 100 (≈ 317 µM) | 12.5 (≈ 39.6 µM) | 25 (≈ 79.3 µM) | 50 (≈ 159 µM) | > 100 | 12.5 (≈ 39.6 µM) | 100 (≈ 317 µM) | 12.5 (≈ 39.6 µM) | 25 (≈ 79.3 µM) | 25 (≈ 79.3 µM) | > 500 | > 100 | 25 (≈ 79.3 µM) | 25 (≈ 79.3 µM) | > 100 | LD50 (Acute toxicity; [14]): 3000 mg/kg
COc1cc2c3c(c1)c(=O)c(C(=O)O)cn3C1CCCCC21 (stereo not shown) [Compound 4, 2-Methoxy-7a,8,9,10,11,11a-hexahydro-4-oxo-4H-pyrido[3,2,1-jk]carbazol-5-carboxylic acid] | 12.5 (≈ 41.8 µM) | 3.2 (≈ 10.7 µM) | 25 (≈ 83.5 µM) | 130 | 100 (≈ 334 µM) | 12.5 (≈ 41.8 µM) | 6.3 (≈ 21 µM) | 12.5 (≈ 41.8 µM) | 6.3 (≈ 21 µM) | 100 (≈ 334 µM) | 6.3 (≈ 21 µM) | 100 (≈ 334 µM) | 12.5 (≈ 41.8 µM) | 6.3 (≈ 21 µM) | 12.5 (≈ 41.8 µM) | > 500 | 100 (≈ 334 µM) | 12.5 (≈ 41.8 µM) | 12.5 (≈ 41.8 µM) | > 100 | LD50 (Acute toxicity; [14]): 4000 mg/kg
Cc1cc(C)c2c(=O)c(C(=O)O)cn3c2c1C1CCCCC13 (stereo not shown) [Compound 5, 1,3-Dimethyl-7a,8,9,10,11,11a-hexahydro-4-oxo-4H-pyrido[3,2,1-jk]carbazol-5-carboxylic acid] | 6.3 (≈ 21.2 µM) | 6.3 (≈ 21.2 µM) | 12.5 (≈ 42 µM) | 120 | 100 (≈ 336 µM) | 25 (≈ 84.1 µM) | 6.3 (≈ 21.2 µM) | 6.3 (≈ 21.2 µM) | 6.3 (≈ 21.2 µM) | > 100 | 12.5 (≈ 42 µM) | 100 (≈ 336 µM) | 12.5 (≈ 42 µM) | 12.5 (≈ 42 µM) | 12.5 (≈ 42 µM) | > 500 | > 100 | 6.3 (≈ 21.2 µM) | 12.5 (≈ 42 µM) | > 100 | LD50 (Acute toxicity; [14]): 3000 mg/kg
O=C(O)c1cn2c3c(ccc([N+](=O)[O-])c3c1=O)C1CCCCC12 (stereo not shown) [Compound 6, 3-nitro-7a,8,9,10,11,11a-hexahydro-4-oxo-4H-pyrido[3,2,1-jk]carbazol-5-carboxylic acid] | 12.5 (≈ 39.8 µM) | 3.2 (≈ 10.2 µM) | 12.5 (≈ 39.8 µM) | 110 | 50 (≈ 159 µM) | 12.5 (≈ 39.8 µM) | 6.3 (≈ 20 µM) | 12.5 (≈ 39.8 µM) | 12.5 (≈ 39.8 µM) | > 100 | 6.3 (≈ 20 µM) | 50 (≈ 159 µM) | 12.5 (≈ 39.8 µM) | 6.3 (≈ 20 µM) | 6.3 (≈ 20 µM) | > 500 | > 100 | 6.3 (≈ 20 µM) | 12.5 (≈ 39.8 µM) | > 100 | LD50 (Acute toxicity; [14]): 4000 mg/kg
Nc1ccc2c3c1c(=O)c(C(=O)O)cn3C1CCCCC21 (stereo not shown) [Compound 7, 3-amino-7a,8,9,10,11,11a-hexahydro-4-oxo-4H-pyrido[3,2,1-jk]carbazol-5-carboxylic acid] | 50 (≈ 176 µM) | 6.3 (≈ 22.2 µM) | 50 (≈ 176 µM) | 115 | > 100 | 50 (≈ 176 µM) | 12.5 (≈ 44 µM) | 50 (≈ 176 µM) | 12.5 (≈ 44 µM) | > 100 | 12.5 (≈ 44 µM) | > 100 | 50 (≈ 176 µM) | 12.5 (≈ 44 µM) | 25 (≈ 87.9 µM) | > 500 | > 100 | 12.5 (≈ 44 µM) | 12.5 (≈ 44 µM) | > 100 | LD50 (Acute toxicity; [14]): 4500 mg/kg
CC(=O)Nc1ccc2c3c1c(=O)c(C(=O)O)cn3C1CCCCC21 (stereo not shown) [Compound 8, 3-acetylamino-7a,8,9,10,11,11a-hexahydro-4-oxo-4H-pyrido[3,2,1-jk]carbazol-5-carboxylic acid] | 12.5 (≈ 38.3 µM) | 3.2 (≈ 9.81 µM) | 25 (≈ 76.6 µM) | 110 | 50 (≈ 153 µM) | 50 (≈ 153 µM) | 6.3 (≈ 19.3 µM) | 12.5 (≈ 38.3 µM) | 6.3 (≈ 19.3 µM) | 100 (≈ 306 µM) | 6.3 (≈ 19.3 µM) | 50 (≈ 153 µM) | 12.5 (≈ 38.3 µM) | 6.3 (≈ 19.3 µM) | 12.5 (≈ 38.3 µM) | > 500 | 100 (≈ 306 µM) | 3.2 (≈ 9.81 µM) | 6.3 (≈ 19.3 µM) | > 100 | LD50 (Acute toxicity; [14]): 3500 mg/kg
O=C(OCCBr)c1cn2c3c(cc(F)cc3c1=O)C1CCCCC12 (stereo not drawn) [Compound 9, β-bromoethyl 2-fluoro-7a,8,9,10,11,11a-hexahydro-4-oxo-4H-pyrido[3,2,1-jk]carbazol-5-carboxylate] | 50 (≈ 127 µM) | 12.5 (≈ 31.7 µM) | 50 (≈ 127 µM) | 105 | 100 (≈ 254 µM) | 100 (≈ 254 µM) | 12.5 (≈ 31.7 µM) | 50 (≈ 127 µM) | 50 (≈ 127 µM) | > 100 | 25 (≈ 63.4 µM) | 100 (≈ 254 µM) | 25 (≈ 63.4 µM) | 25 (≈ 63.4 µM) | 25 (≈ 63.4 µM) | > 500 | > 100 | 12.5 (≈ 31.7 µM) | 25 (≈ 63.4 µM) | > 100 | LD50 (Acute toxicity; [14]): 3000 mg/kg
NNC(=O)c1cn2c3c(cc(F)cc3c1=O)C1CCCCC12 (stereo not shown) [Compound 10, 2-Fluoro-7a,8,9,10,11,11a-hexahydro-4-oxo-4H-pyrido[3,2,1-jk]carbazol-5-carbohydrazide] | 50 (≈ 166 µM) | 25 (≈ 83 µM) | 50 (≈ 166 µM) | 100 | > 100 | 100 (≈ 332 µM) | 12.5 (≈ 41.5 µM) | 50 (≈ 166 µM) | 100 (≈ 332 µM) | > 100 | 12.5 (≈ 41.5 µM) | > 100 | 25 (≈ 83 µM) | 12.5 (≈ 41.5 µM) | 25 (≈ 83 µM) | > 500 | > 100 | 25 (≈ 83 µM) | 25 (≈ 83 µM) | > 100 | LD50 (Acute toxicity; [14]): 3500 mg/kg
CCn1cc(C(=O)O)c(=O)c2ccc(C)nc21 [Compound 13, 1-ethyl-1,4-dihydro-7-methyl-4-one-1,8-naphthyridine-3-carboxylic acid, reference compound] | 50 (≈ 215 µM) | 6.3 (≈ 27.1 µM) | 25 (≈ 108 µM) | – | > 100 | 50 (≈ 215 µM) | 12.5 (≈ 53.8 µM) | 50 (≈ 215 µM) | 12.5 (≈ 53.8 µM) | > 100 | 12.5 (≈ 53.8 µM) | > 100 | 6.3 (≈ 27.1 µM) | 6.3 (≈ 27.1 µM) | 12.5 (≈ 53.8 µM) | > 500 | > 100 | 3.2 (≈ 13.8 µM) | 6.3 (≈ 27.1 µM) | > 100 | –
